This is an account of results in patent US10538521B2, “Pyrimidine derivative having antimalarial activity” (CARNA BIOSCIENCES, INC., priority 2016, dated 2020).

For assay [1], the system named is K1 strain, a drug resistant strain of Plasmodium falciparum. Nature of the assay: In vitro antimalarial assay (p-LDH, Malstat), K1 strain. It counts as cell-based. The following applies: read-out: Antimalarial activity (IC50 value), Strain K1. A digest of the protocol: (§1)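 IC50 derived from concentration-response of parasite lactate dehydrogenase signal (Malstat reagent, NBT/PES formazan at 655 nm) after freeze-thaw lysis. Infected erythrocytes (hematocrit 2%, parasitaemia 0.5 or 1%) exposed 72 h to 12.5–0.0001 μM final compound under 3% O2-4% CO2-93% N2, FCR3 and K1 alike.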

Assay [2] concerns FCR3 strain, a drug sensitive strain of Plasmodium falciparum. The experiment in a line: In vitro antimalarial assay (p-LDH, Malstat), FCR3 strain. Type of assay: cell-based. The note with it: read-out: Antimalarial activity (IC50 value), Strain FCR3. A digest of the protocol: as §1
Setting [3] is: P. falciparum K1 (drug resistant), 72 h culture, p-LDH readout.
Setting [4] is: P. falciparum FCR3 (drug sensitive), 72 h culture, p-LDH readout.

Read-outs that look alike come from different tables or passages of the source.

Usually IC50 stands for the concentration that gives 50% inhibition. For `CC(C)(C)Cc1cccc(Nc2nc(Nc3ccn4ccnc4c3)cc(N3CCCC3)n2)n1` [Example 162, N4-(imidazo[1,2-a]pyridin-7-yl)-N2-(6-neopentylpyridin-2-yl)-6-(pyrrolidin-1-yl)pyrimidine-2,4-diamine], the IC50 in assay [1] (setting [3]) is 100 to 1000 nM; in assay [2] (setting [4]), under 100 nM.

For the molecule `CCc1ccnc(Nc2nc(Nc3ccn4ccnc4c3)cc(N3CCC(O)CC3)n2)c1` [Example 111, 1-(2-((4-ethylpyridin-2-yl)amino)-6-(imidazo[1,2-a]pyridin-7-ylamino)pyrimidin-4-yl)piperidin-4-ol], the half-maximal inhibitory concentration (IC50) in assay [1] (setting [3]) and in assay [2] (setting [4]) was under 100 nM each time.

As to `CCOc1ccc(Nc2nc(Nc3ccn4ccnc4c3)cc(N3CCOCC3)n2)cn1` [Example 7, N2-(6-Ethoxypyridin-3-yl)-N4-(imidazo[1,2-a]pyridin-7-yl)-6-morpholinopyrimidine-2,4-diamine], the IC50 in assay [1] (setting [3]) and in assay [2] (setting [4]) was under 100 nM throughout.

Regarding `Cc1cc(C)nc(Nc2nc(Nc3ccn4ccnc4c3)cc(N3CCC(N4CCOCC4)CC3)n2)c1` [Example 132, N2-(4,6-dimethylpyridin-2-yl)-N4-(imidazo[1,2-a]pyridin-7-yl)-6-(4-morpholinopiperidin-1-yl)pyrimidine-2,4-diamine], the IC50 in assay [1] (setting [3]) and in assay [2] (setting [4]) was under 100 nM in each case.

`Cc1ccc(Nc2nc(Nc3ccn4ccnc4c3)cc(N3CCN(C)[C@@H](C)C3)n2)nc1` [Example 37, (S)-6-(3,4-dimethylpiperazin-1-yl)-N4-(imidazo[1,2-a]pyridin-7-yl)-N2-(5-methylpyridin-2-yl)pyrimidine-2,4-diamine]: the IC50 in assay [1] (setting [3]) and in assay [2] (setting [4]) was 1000 to 10000 nM each time.

On to `CCOc1cc(Nc2ccn3ccnc3c2)nc(Nc2cc(C)cc(C)n2)n1` [Example 33, N2-(4,6-dimethylpyridin-2-yl)-6-ethoxy-N4-(imidazo[1,2-a]pyridin-7-yl)pyrimidine-2,4-diamine], for which the results for the concentration for half-maximal inhibition (IC50) in assay [1] (setting [3]) and in assay [2] (setting [4]) were 100 to 1000 nM and under 100 nM, respectively.

On to `Cc1cc(C)nc(Nc2nc(Nc3ccn4ccnc4c3)cc(N3CC[C@H](F)C3)n2)c1` [Example 185, (S)-N2-(4,6-dimethylpyridin-2-yl)-6-(3-fluoropyrrolidin-1-yl)-N4-(imidazo[1,2-a]pyridin-7-yl) pyrimidine-2,4-diamine], for which the IC50 in assay [1] (setting [3]) and in assay [2] (setting [4]) was under 100 nM throughout.

`CCOc1cc(Nc2ccn3ccnc3c2)nc(Nc2ccc(C)cn2)n1` [Example 38, 6-ethoxy-N4-(imidazo[1,2-a]pyridin-7-yl)-N2-(5-methylpyridin-2-yl)pyrimidine-2,4-diamine]: the IC50 in assay [1] (setting [3]) and in assay [2] (setting [4]) was 100 to 1000 nM throughout.

Regarding `CCCOc1cccc(Nc2nc(Nc3ccn4ccnc4c3)cc(N3CCCC3)n2)n1` [Example 151, N4-(imidazo[1,2-a]pyridin-7-yl)-N2-(6-propoxypyridin-2-yl)-6-(pyrrolidin-1-yl)pyrimidine-2,4-diamine], the IC50 in assay [1] (setting [3]) and in assay [2] (setting [4]) was 100 to 1000 nM throughout.

Consider `Fc1cccc(Nc2nc(Nc3ccn4ccnc4c3)cc(N3CCOCC3)n2)n1` [Example 14, N2-(6-Fluoropyridin-2-yl)-N4-(imidazo[1,2-a]pyridin-7-yl)-6-morpholinopyrimidine-2,4-diamine], for which the IC50 in assay [1] (setting [3]) was in the range of 1000 to 10000 nM; in assay [2] (setting [4]), 100 to 1000 nM.

Consider `Cc1nc(Nc2nc(Nc3ccn4ccnc4c3)cc(N3CCCCC3)n2)ccc1F` [Example 202, N2-(5-fluoro-6-methylpyridin-2-yl)-N4-(imidazo[1,2-a]pyridin-7-yl)-6-(piperidin-1-yl) pyrimidine-2,4-diamine], for which the IC50 in assay [1] (setting [3]) and in assay [2] (setting [4]) was 100 to 1000 nM throughout.

Turning to `Cc1cc(C)nc(Nc2nc(Nc3ccn4ccnc4c3)cc(N3CC[C@@H](F)C3)n2)c1` [Example 186, (R)-N2-(4,6-dimethylpyridin-2-yl)-6-(3-fluoropyrrolidin-1-yl)-N4-(imidazo[1,2-a]pyridin-7-yl) pyrimidine-2,4-diamine], the IC50 in assay [1] (setting [3]) and in assay [2] (setting [4]) was under 100 nM throughout.

As to `CCc1ccnc(Nc2nc(Nc3ccn4ccnc4c3)cc(N3CCC(N4CCCC4)CC3)n2)c1` [Example 127, N2-(4-ethylpyridin-2-yl)-N4-(imidazo[1,2-a]pyridin-7-yl)-6-(4-(pyrrolidin-1-yl)piperidin-1-yl)pyrimidine-2,4-diamine], the IC50 in assay [1] (setting [3]) and in assay [2] (setting [4]) was under 100 nM in each case.

With `Cc1cc(C)nc(Nc2nc(Nc3ccn4ccnc4c3)cc(N3CCCC(C)C3)n2)c1` (stereo not shown) [Example 184, N2-(4,6-dimethylpyridin-2-yl)-N4-(imidazo[1,2-a]pyridin-7-yl)-6-(3-methylpiperidin-1-yl) pyrimidine-2,4-diamine], the IC50 in assay [1] (setting [3]) and in assay [2] (setting [4]) was 100 to 1000 nM in each case.

Turning to `COc1cc(C)nc(Nc2nc(Nc3ccn4ccnc4c3)cc(N3CCCCC3)n2)c1` [Example 190, N4-(imidazo[1,2-a]pyridin-7-yl)-N2-(4-methoxy-6-methylpyridin-2-yl)-6-(piperidin-1-yl) pyrimidine-2,4-diamine], the IC50 in assay [1] (setting [3]) and in assay [2] (setting [4]) was under 100 nM throughout.

Take `c1cn2ccc(Nc3cc(N4CCOCC4)nc(Nc4ccc(OC5CCCCC5)nc4)n3)cc2n1` [Example 81, N2-(6-(cyclohexyloxy)pyridin-3-yl)-N4-(imidazo[1,2-a]pyridin-7-yl)-6-morpholinopyrimidine-2,4-diamine]: the IC50 in assay [1] (setting [3]) and in assay [2] (setting [4]) was 100 to 1000 nM each time.

Turning to `COc1cc(Nc2ccn3ccnc3c2)nc(Nc2cc(C)cc(C)n2)n1` [Example 86, N2-(4,6-dimethylpyridin-2-yl)-N4-(imidazo[1,2-a]pyridin-7-yl)-6-methoxypyrimidine-2,4-diamine], the half-maximal inhibitory concentration (IC50) in assay [1] (setting [3]) and in assay [2] (setting [4]) was 100 to 1000 nM each time.

Turning to `Fc1ncccc1Nc1nc(Nc2ccn3ccnc3c2)cc(N2CCOCC2)n1` [Example 11, N2-(2-Fluoropyridin-3-yl)-N4-(imidazo[1,2-a]pyridin-7-yl)-6-morpholinopyrimidine-2,4-diamine], the results for the half-maximal inhibitory concentration (IC50) in assay [1] (setting [3]) and in assay [2] (setting [4]) were 1000 to 10000 nM and 100 to 1000 nM, respectively.

With `CCc1ccnc(Nc2nc(Nc3ccn4ccnc4c3)cc(N3CC[C@@H](O)C3)n2)c1` [Example 116, (R)-1-(2-((4-ethylpyridin-2-yl)amino)-6-(imidazo[1,2-a]pyridin-7-ylamino)pyrimidin-4-yl)pyrrolidin-3-ol], the IC50 in assay [1] (setting [3]) and in assay [2] (setting [4]) was under 100 nM throughout.

Regarding `CCc1ccnc(Nc2nc(Nc3ccn4ccnc4c3)cc(N3CCCCC3)n2)c1` [Example 71, N2-(4-ethylpyridin-2-yl)-N4-(imidazo[1,2-a]pyridin-7-yl)-6-(piperidin-1-yl)pyrimidine-2,4-diamine], the 50% inhibitory concentration (IC50) in assay [1] (setting [3]) and in assay [2] (setting [4]) was under 100 nM each time.

On to `c1cc(Nc2nc(Nc3ccn4ccnc4c3)cc(N3CCCCC3)n2)nc(C2CC2)c1` [Example 96, N2-(6-cyclopropylpyridin-2-yl)-N4-(imidazo[1,2-a]pyridin-7-yl)-6-(piperidin-1-yl)pyrimidine-2,4-diamine], for which the half-maximal inhibitory concentration (IC50) in assay [1] (setting [3]) and in assay [2] (setting [4]) was 100 to 1000 nM throughout.

For the molecule `Fc1cncc(Nc2nc(Nc3ccn4ccnc4c3)cc(N3CCOCC3)n2)c1` [Example 6, N2-(5-Fluoropyridin-3-yl)-N 4-(imidazo[1,2-a]pyridin-7-yl)-6-morpholinopyrimidine-2,4-diamine], the IC50 in assay [1] (setting [3]) and in assay [2] (setting [4]) was 100 to 1000 nM throughout.

For the molecule `Cc1ccc(Nc2nc(N)cc(Nc3ccn4ccnc4c3)n2)cn1` [Example 85, N4-(imidazo[1,2-a]pyridin-7-yl)-N2-(6-methylpyridin-3-yl) pyrimidine-2,4,6-triamine], the IC50 in assay [1] (setting [3]) and in assay [2] (setting [4]) was 1000 to 10000 nM each time.

As for `Cc1ccc(Nc2nc(Nc3ccn4ccnc4c3)cc(N3CCOCC3)n2)cn1` [Example 60, N4-(imidazo[1,2-a]pyridin-7-yl)-N2-(6-methylpyridin-3-yl)-6-morpholinopyrimidine-2,4-diamine], the concentration for half-maximal inhibition (IC50) in assay [1] (setting [3]) and in assay [2] (setting [4]) was under 100 nM throughout.

For the molecule `c1cc(CCN2CCCC2)nc(Nc2nc(Nc3ccn4ccnc4c3)cc(N3CCCC3)n2)c1` [Example 163, N4-(imidazo[1,2-a]pyridin-7-yl)-6-(pyrrolidin-1-yl)-N2-{6-[2-(pyrrolidin-1-yl)ethyl]pyridin-2-yl}pyrimidine-2,4-diamine triformate], the IC50 was 100 to 1000 nM in assay [1] (K1, 72 h) and under 100 nM in assay [2] (FCR3, 72 h).

For `Cc1cc(C)nc(Nc2nc(N)cc(Nc3ccn4ccnc4c3)n2)c1` [Example 58, N2-(4,6-dimethylpyridin-2-yl)-N4-(imidazo[1,2-a]pyridin-7-yl)pyrimidine-2,4,6-triamine], the IC50 in assay [1] (setting [3]) and in assay [2] (setting [4]) was under 100 nM throughout.

Consider `CCc1ccnc(Nc2nc(Nc3ccn4ccnc4c3)cc(N3CCC(N4CCCCC4)CC3)n2)c1` [Example 113, 6-([1,4′-bipiperidin]-1′-yl)-N2-(4-ethylpyridin-2-yl)-N4-(imidazo[1,2-a]pyridin-7-yl)pyrimidine-2,4-diamine], for which the IC50 in assay [1] (setting [3]) and in assay [2] (setting [4]) was under 100 nM in each case.

For the molecule `CC(C)Oc1ccc(Nc2nc(Nc3ccn4ccnc4c3)cc(N3CCOCC3)n2)cn1` [Example 15, N4-(Imidazo[1,2-a]pyridin-7-yl)-N2-(6-isopropoxypyridin-3-yl)-6-morpholinopyrimidine-2,4-diamine], the IC50 in assay [1] (setting [3]) and in assay [2] (setting [4]) was under 100 nM throughout.

`c1cncc(Nc2nc(Nc3ccn4ccnc4c3)cc(N3CCOCC3)n2)c1` [Example 4, N4-(Imidazo[1,2-a]pyridin-7-yl)-6-morpholino-N2-(pyridin-3-yl)pyrimidine-2,4-diamine]: the IC50 in assay [1] (setting [3]) and in assay [2] (setting [4]) was 100 to 1000 nM throughout.
